Values of other authors, collected in patent US20140044668A1, “Methods for Predicting Cardiovascular Risks and Responsiveness to Statin Therapy Using SNPs” (THE OHIO STATE UNIVERSITY, priority 2011, published 2014).

Target: T1, CETP (Homo sapiens, UniProt P11597)
T1 sequence (P11597 18-493): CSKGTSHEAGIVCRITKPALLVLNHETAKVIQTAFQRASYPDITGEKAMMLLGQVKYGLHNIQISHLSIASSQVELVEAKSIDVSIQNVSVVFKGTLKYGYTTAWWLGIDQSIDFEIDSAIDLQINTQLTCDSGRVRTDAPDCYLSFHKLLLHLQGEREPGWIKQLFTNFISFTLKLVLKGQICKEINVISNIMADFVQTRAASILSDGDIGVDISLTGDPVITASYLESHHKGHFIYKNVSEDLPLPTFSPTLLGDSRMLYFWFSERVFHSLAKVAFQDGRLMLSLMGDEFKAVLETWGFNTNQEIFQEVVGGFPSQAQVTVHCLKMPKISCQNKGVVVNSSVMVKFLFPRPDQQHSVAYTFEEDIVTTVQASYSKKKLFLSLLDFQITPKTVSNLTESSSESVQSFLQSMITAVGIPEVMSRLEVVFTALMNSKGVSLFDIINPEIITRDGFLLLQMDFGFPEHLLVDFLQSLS
Conditions: in vivo

HDL: HDL increased
LDL: LDL decreased substantially
SMILES: CCOC(=O)N1c2ccc(C(F)(F)F)cc2[C@@H](N(Cc2cc(C(F)(F)F)cc(C(F)(F)F)c2)C(=O)OC)C[C@H]1CC [torcetrapib]
cardiovascular events: increase cardiovascular events
